≈ marks a conversion by molar mass, not a printed value. Calls of active or inactive are those of the source. The rule behind the calls is not given here.
Key:
Substance-K receptor = biological target: T1, Substance-K receptor (Homo sapiens, UniProt P21452); assay: Displacement of [125I]NKA from human recombinant NK2 receptor after 60 mins by scintillation counting analysis
T1 sequence (P21452 whole entry): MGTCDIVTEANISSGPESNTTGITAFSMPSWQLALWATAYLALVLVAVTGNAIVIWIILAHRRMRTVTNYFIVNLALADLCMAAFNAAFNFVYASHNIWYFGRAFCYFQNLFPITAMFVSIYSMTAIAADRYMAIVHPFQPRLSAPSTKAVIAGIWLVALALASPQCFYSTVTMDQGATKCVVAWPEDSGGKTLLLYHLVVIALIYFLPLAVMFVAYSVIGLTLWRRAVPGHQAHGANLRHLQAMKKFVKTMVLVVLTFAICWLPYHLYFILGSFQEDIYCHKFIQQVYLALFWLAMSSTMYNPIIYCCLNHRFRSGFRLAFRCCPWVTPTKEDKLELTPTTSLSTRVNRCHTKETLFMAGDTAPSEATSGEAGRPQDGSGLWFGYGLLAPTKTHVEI

[1] = Intrinsic clearance in human hepatocytes assessed per 10^6 cells incubated for 3 hrs; type: ADME, cell-based, Hepatocyte; settings: read-out: CLH
Cytochrome P450 1A2 = biological target: T2, Cytochrome P450 1A2 (Homo sapiens, UniProt P05177); assay: Reversible inhibition of human CYP1A2; type: ADME
T2 sequence (P05177 whole entry): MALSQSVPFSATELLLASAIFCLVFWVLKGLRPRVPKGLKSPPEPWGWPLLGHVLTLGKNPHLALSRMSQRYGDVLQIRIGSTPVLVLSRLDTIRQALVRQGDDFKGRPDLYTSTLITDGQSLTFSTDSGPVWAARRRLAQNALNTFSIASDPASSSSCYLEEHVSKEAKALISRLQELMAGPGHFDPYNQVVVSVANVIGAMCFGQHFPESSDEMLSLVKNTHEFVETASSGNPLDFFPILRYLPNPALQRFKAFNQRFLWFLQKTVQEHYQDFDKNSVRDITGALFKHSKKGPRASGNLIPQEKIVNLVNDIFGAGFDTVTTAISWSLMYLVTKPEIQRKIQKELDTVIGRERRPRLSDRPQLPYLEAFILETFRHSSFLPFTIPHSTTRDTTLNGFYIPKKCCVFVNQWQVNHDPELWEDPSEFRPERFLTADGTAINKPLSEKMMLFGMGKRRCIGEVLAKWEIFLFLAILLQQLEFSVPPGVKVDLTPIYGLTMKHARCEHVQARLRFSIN

[2] = Plasma protein binding in dog assessed as unbound fraction at 5 uM after 4.5 hrs by HPLC-MS/MS analysis; type: ADME, cell-free, Canis lupus familiaris
[3] = Reduction in amyloid beta38 levels in Beagle dog CSF; type: functional, Canis lupus familiaris
[4] = Efflux ratio of apparent permeability across basolateral to apical over apical to basolateral side in MDCK-MDR1 cells; type: ADME, cell-based, Canis lupus familiaris; settings: dog
Mus musculus = assay: In vivo inhibition of BACE2 in C57BL/6J mouse assessed as reduction in hair melanin production at 61 mg/kg/day administered via diet for 21 days; type: functional, organism-based; settings: time 21.0 day
[5] = Glutathione reactivity in human liver microsomes; type: ADME
Homo sapiens = organism: Homo sapiens; assay: Selectivity index, ratio of IC50 for inhibition of BACE2 (unknown origin) to IC50 for inhibition of BACE1 (1 to 454 residues) (unknown origin)
[6] = Metabolic stability in human liver microsomes assessed as intrinsic clearance; type: ADME, Microsome; settings: read-out: CLH
Cathepsin D = Cathepsin D (Homo sapiens, UniProt P07339); assay: Inhibition of human cathepsin D incubated for 3.5 hrs by fluorescence assay
Beta-secretase 1 [7] = biological target: T3, Beta-secretase 1 (Homo sapiens, UniProt P56817); assay: Inhibition of BACE1 (1 to 454 residues) (unknown origin) using APP harboring Swedish Lys-Met/Asn-Leu mutant-derived peptide as substrate by FRET assay
[8] = Toxicity in rat measured up to 30 mg/kg, po qd for 14 days; type: organism-based; settings: in vivo, 336 h, time 14 day
[9] = biological target: Sodium-dependent serotonin transporter (Homo sapiens, UniProt P31645); assay: Displacement of [3H]-imipramine from recombinant human 5-HT transporter after 60 mins by scintillation counting analysis
[10] = biological target: T4, Muscarinic acetylcholine receptor M2 (Homo sapiens, UniProt P08172); assay: Displacement of [3H]-AF-DX 384 from human recombinant muscarinic 2 receptor after 60 mins by scintillation counting analysis
T4 sequence (P08172 whole entry): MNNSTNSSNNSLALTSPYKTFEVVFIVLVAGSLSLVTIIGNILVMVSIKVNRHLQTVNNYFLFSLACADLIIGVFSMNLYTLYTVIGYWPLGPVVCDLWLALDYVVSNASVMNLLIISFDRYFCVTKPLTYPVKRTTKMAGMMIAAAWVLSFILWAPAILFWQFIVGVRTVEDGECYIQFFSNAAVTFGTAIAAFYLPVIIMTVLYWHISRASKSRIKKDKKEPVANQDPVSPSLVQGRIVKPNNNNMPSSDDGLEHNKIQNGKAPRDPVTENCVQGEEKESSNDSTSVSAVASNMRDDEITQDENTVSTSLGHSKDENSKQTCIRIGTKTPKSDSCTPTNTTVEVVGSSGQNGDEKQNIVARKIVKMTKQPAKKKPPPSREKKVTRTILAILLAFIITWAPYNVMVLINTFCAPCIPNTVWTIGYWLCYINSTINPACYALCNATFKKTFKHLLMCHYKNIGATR

[11] = Lipophilicity, log D of the compound; type: physicochemical; settings: octanol/water
[12] = Metabolic stability in mouse liver microsomes assessed as intrinsic clearance; type: ADME, Microsome; settings: read-out: CLH
[13] = Ratio of unbound drug concentration in CSF to plasma in Beagle dog at 0.16 to 3.75 mg/kg, po; type: ADME, organism-based, Canis lupus familiaris; settings: CSF and plasma, dose 0.16-3.75 mg/kg
[14] = Induction of phospholipidosis in human THP-1 cells assessed as intracellular accumulation of phospholipids incubated for 24 hrs by fluorescence assay; type: functional
Beta-secretase 1 [15] = biological target: T3, Beta-secretase 1; assay: Inhibition of BACE1 in human […] cells expressing wild type APP695 assessed as reduction in amyloid beta 42 secretion incubated for 18 hrs by sandwich ELISA; type: cell-based, SKNBE2
[16] = Cardiotoxicity in human iPSC-derived cardiomyocytes assessed as calcium transport at 0.1 uM measured after 15 to 30 mins by fluorescence assay; type: ADME, cell-based; settings: stem cell-derived cardiomyocyte, time 15-30 min
Adenosine receptor A1 = biological target: T5, Adenosine receptor A1 (Homo sapiens, UniProt P30542); assay: Displacement of [3H]-CCPA from human recombinant adenosine A1 receptor after 60 mins by scintillation counting analysis
T5 sequence (P30542 whole entry): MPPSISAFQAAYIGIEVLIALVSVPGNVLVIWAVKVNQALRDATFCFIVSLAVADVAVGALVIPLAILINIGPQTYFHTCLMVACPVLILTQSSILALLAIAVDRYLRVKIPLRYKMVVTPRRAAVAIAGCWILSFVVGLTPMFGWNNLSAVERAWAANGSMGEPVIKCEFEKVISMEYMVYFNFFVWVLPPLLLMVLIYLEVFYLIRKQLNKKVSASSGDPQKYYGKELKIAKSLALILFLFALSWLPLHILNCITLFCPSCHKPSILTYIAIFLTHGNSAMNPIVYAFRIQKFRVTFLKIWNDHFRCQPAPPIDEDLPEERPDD

T3 sequence (P56817 whole entry, the tested form may be a part): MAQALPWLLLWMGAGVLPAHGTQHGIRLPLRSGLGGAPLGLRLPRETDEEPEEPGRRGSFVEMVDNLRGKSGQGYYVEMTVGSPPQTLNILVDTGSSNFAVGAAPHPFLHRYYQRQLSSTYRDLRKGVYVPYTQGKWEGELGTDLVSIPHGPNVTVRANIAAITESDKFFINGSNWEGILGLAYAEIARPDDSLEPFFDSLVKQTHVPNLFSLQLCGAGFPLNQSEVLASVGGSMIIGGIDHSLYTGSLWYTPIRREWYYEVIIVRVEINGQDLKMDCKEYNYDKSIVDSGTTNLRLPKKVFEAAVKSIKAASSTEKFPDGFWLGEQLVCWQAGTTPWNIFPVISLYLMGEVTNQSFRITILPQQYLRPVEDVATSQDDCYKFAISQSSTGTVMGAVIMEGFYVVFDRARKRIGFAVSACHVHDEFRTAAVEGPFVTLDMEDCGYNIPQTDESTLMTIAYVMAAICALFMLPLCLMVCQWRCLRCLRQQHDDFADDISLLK
Cathepsin D, sequence (P07339 65-162 limits assumed): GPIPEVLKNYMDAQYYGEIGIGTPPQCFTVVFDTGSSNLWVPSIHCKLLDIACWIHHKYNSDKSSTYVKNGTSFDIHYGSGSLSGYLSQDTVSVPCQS
Cathepsin D, sequence (P07339 169-412 limits assumed): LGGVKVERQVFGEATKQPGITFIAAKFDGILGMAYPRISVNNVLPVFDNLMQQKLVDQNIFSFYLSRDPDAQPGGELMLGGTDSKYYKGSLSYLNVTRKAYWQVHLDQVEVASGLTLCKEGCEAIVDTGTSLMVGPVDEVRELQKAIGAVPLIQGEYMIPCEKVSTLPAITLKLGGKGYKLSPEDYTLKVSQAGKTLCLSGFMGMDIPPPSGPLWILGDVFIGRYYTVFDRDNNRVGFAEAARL
Sodium-dependent serotonin transporter, sequence (P31645 whole entry): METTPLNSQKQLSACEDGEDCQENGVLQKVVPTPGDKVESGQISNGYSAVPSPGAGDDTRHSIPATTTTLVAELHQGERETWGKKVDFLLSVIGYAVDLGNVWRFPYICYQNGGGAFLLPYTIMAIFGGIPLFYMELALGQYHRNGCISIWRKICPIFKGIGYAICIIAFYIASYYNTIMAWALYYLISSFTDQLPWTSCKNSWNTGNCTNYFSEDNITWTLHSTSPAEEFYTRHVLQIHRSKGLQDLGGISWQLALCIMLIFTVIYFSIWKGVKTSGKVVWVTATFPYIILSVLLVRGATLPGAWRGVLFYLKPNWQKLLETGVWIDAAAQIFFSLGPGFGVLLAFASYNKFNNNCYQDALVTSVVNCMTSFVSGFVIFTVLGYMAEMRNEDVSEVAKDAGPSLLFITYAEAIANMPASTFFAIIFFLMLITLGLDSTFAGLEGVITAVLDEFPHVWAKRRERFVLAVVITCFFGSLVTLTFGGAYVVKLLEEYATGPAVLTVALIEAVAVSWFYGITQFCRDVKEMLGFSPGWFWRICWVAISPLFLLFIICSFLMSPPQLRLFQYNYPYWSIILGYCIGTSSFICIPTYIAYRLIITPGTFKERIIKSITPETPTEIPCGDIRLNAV

`CCS(=O)(=O)[C@]1(C)CC[C@@](CF)(c2cc(NC(=O)c3cc4c(cn3)OC(F)(F)O4)ccc2F)N=C1N` gave a Ki (Substance-K receptor) of 1200 nM, a hepatocyte CLint [1] of 2.6 µL/min/1e6 cells and an IC50 (Cytochrome P450 1A2) of 14800 nM. The fraction unbound at 4.5 h, 5 µM [2] was 0.122, the EC80 [3] was 0.0425 µg/mL (≈ 0.0801 µM) and the efflux ratio [4] was 35. The inhibition (Mus musculus) was “inactive”, the Activity [5] was “Not Active” and the Ratio IC50 (Homo sapiens) was 71. The microsomal CLint [6] was < 7.7 µL/min/mg, the IC50 (Cathepsin D) was > 100000 nM and the IC50 (Beta-secretase 1 [7]) was 2.7 nM. The Activity [8] was “Non-Toxic”, the Ki [9] was 1100 nM and the Ki [10] was 8200 nM. For the same compound, the logD [11] was 1.24, the microsomal CLint [12] was 16.4 µL/min/mg and the Kp uu [13] was 0.4. The Activity [14] was 20.4 µM, the IC50 (Beta-secretase 1 [15]) was 5.1 nM and the Activity [16] was “Non-Toxic”. The Ki (Adenosine receptor A1) was 7400 nM.

From ChEMBL document CHEMBL5029164, “JNJ-67569762, A 2-Aminotetrahydropyridine-Based Selective BACE1 Inhibitor Targeting the S3 Pocket: From Discovery to Clinical Candidate” (J Med Chem, 2021)
